Experimental findings from ChEMBL document CHEMBL4359920 (Eur J Med Chem, 2019) are described below.

One data set addresses Histone deacetylase 1 (Homo sapiens, UniProt Q13547). Kind of data set: Inhibition of recombinant full length C-terminal FLAG/His-tagged human HDAC1 expressed in baculovirus infected Sf9 cells using Ac-peptide-AMC as substrate preincubated for 15 mins followed by substrate addition and measured after 60 mins by fluorescence based assay.
For another data set, the target named is Histone deacetylase 2 (Homo sapiens, UniProt Q92769). Kind of data set: biochemical. It counts as cell-based, Sf9.
Data set [1] deals with Histone deacetylase 3/Nuclear receptor corepressor 2 (HDAC3/NCoR2) (Homo sapiens, UniProt O15379). Kind of data set: Inhibition of human recombinant full length C-terminal His-tagged HDAC3 (1 to 428 residues)/N-terminal GST-tagged NCOR2 (395 to 489 residues) expressed in baculovirus infected Sf9 cells using Ac-peptide-AMC as substrate preincubated for 15 mins followed by substrate addition and measured after 60 mins by fluorescence based assay.

In data set [2] the target is T1, Protein deacetylase HDAC6 (Homo sapiens, UniProt Q9UBN7).
T1 sequence (Q9UBN7 whole entry): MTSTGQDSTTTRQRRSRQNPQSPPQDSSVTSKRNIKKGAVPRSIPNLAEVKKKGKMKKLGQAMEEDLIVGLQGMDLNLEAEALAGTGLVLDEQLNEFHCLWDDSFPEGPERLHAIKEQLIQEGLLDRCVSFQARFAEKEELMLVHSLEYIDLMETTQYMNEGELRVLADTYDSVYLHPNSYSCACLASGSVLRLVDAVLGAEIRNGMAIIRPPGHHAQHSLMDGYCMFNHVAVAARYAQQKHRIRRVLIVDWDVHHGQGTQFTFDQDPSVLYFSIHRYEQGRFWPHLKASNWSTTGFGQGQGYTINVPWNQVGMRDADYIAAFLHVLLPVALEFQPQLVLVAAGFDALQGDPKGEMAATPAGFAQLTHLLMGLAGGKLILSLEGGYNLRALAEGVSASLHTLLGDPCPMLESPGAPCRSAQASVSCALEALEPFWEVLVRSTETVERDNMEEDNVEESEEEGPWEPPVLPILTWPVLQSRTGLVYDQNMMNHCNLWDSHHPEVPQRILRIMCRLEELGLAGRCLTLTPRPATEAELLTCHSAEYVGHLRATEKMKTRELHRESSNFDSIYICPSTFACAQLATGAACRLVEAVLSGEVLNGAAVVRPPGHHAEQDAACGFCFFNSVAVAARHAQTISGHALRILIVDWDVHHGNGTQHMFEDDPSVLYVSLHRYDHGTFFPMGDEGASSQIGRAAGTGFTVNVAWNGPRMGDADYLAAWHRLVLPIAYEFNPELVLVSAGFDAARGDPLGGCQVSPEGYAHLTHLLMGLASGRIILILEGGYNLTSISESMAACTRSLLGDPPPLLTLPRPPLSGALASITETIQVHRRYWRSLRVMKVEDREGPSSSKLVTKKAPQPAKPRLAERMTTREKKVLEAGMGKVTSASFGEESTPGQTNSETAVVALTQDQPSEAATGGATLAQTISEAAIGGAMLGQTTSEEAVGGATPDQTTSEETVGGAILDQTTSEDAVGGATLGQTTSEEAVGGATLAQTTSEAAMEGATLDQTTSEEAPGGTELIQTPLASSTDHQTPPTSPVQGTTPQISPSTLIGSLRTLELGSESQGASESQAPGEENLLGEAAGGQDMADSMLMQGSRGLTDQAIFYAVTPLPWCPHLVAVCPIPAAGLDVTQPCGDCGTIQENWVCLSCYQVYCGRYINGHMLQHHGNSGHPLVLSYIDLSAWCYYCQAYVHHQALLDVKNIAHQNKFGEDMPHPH
Kind of data set: Inhibition of recombinant human HDAC6 using Ac-peptide-AMC as substrate preincubated for 15 mins followed by substrate addition and measured after 60 mins by fluorescence based assay. The settings on record: for inhibition (INH): human, 1 h.

A further data set addresses T2, Histone deacetylase 8 (Homo sapiens, UniProt Q9BY41).
T2 sequence (Q9BY41 whole entry): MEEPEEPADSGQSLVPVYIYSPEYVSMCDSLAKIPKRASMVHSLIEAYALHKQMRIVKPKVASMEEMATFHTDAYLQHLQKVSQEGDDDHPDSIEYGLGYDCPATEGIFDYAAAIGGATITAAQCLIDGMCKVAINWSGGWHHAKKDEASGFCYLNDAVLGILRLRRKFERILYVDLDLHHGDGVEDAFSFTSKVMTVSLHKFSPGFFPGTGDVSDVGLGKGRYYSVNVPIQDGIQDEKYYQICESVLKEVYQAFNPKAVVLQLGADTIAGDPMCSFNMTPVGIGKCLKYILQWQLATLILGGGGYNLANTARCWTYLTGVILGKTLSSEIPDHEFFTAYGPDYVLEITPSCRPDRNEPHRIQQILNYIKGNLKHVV
Kind of data set: Inhibition of full length C-terminal His-tagged human HDAC8 expressed in baculovirus infected Sf9 cells using Ac-peptide-AMC as substrate preincubated for 15 mins followed by substrate addition and measured after 240 mins by fluorescence based assay.

For another data set, the system named is A549. Kind of data set: Antiproliferative activity against human A549 cells assessed as reduction in cell viability after 72 hrs by MTT assay. It counts as functional, cell-based. The settings on record: A549, 72 h.
The subject of another data set is HCT-116. In words: Antiproliferative activity against human HCT116 cells assessed as reduction in cell viability after 72 hrs by MTT assay. The format is functional, cell-based. To be noted: HCT-116, 72 h. (In general: Tetrazolium dyes change colour on reduction, which living cells bring about.)
The next data set has as its system MDA-MB-231. Kind of data set: Antiproliferative activity against human MDA-MB-231 cells assessed as reduction in cell viability after 72 hrs by MTT assay. The format is functional, cell-based. The settings on record: MDA-MB-231, 72 h.
The next data set relates to SK-OV-3. Kind of data set: Antiproliferative activity against human SKOV3 cells assessed as reduction in cell viability after 72 hrs by MTT assay. The format is functional, cell-based. To be noted: SK-OV-3, 72 h.
The species named for data set [3] is Homo sapiens. In words: Selectivity ratio of IC50 for inhibition of recombinant full length human HDAC2 expressed in baculovirus infected Sf9 cells to IC50 for inhibition of recombinant full length C-terminal FLAG/His-tagged human HDAC1 expressed in baculovirus infected Sf9 cells.
The species named for data set [4] is Homo sapiens. Kind of data set: Selectivity ratio of IC50 for inhibition of human recombinant full length C-terminal His-tagged HDAC3 (1 to 428 residues)/N-terminal GST-tagged NCOR2 (395 to 489 residues) expressed in baculovirus infected Sf9 cells to IC50 for inhibition recombinant full length C-terminal FLAG/His-tagged human HDAC1 expressed in baculovirus infected Sf9 cells.

Data set [5] has as its target Histone deacetylase (Homo sapiens) (UniProt Q13547+O15379+Q9UBN7+Q92769+Q9UQL6+Q8WUI4+Q9BY41+Q96DB2+P56524+Q9UKV0+Q969S8). In words: Inhibition of HDAC in human HCT116 cells assessed as increase in histone H3 acetylation after 24 hrs by Western blot analysis. The format is cell-based. On the technique in general: Immunoblotting shows a protein as a band on a membrane.

The target of data set [6] is T1, Protein deacetylase HDAC6. In words: Inhibition of HDAC6 in human HCT116 cells assessed as alpha tubulin acetylation at 0.1 to 10000 nM after 24 hrs by Western blot analysis. The format is cell-based. To be noted: 10 µM.

Chain of Histone deacetylase 1 (Q13547 whole entry): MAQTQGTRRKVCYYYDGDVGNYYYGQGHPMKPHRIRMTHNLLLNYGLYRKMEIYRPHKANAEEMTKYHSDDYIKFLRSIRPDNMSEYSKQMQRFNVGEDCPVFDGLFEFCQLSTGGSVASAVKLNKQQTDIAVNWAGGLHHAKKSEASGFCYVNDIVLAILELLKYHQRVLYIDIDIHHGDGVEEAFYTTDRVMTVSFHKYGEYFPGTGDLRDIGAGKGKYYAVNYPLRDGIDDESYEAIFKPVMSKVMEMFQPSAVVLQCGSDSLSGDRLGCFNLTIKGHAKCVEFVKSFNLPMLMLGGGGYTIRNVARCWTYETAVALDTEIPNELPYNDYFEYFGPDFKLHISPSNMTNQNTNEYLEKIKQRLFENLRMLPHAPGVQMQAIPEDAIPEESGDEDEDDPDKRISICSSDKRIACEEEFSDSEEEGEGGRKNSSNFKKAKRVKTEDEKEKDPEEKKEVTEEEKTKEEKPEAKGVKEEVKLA
Chain of Histone deacetylase 2 (Q92769 whole entry, the tested form may be a part): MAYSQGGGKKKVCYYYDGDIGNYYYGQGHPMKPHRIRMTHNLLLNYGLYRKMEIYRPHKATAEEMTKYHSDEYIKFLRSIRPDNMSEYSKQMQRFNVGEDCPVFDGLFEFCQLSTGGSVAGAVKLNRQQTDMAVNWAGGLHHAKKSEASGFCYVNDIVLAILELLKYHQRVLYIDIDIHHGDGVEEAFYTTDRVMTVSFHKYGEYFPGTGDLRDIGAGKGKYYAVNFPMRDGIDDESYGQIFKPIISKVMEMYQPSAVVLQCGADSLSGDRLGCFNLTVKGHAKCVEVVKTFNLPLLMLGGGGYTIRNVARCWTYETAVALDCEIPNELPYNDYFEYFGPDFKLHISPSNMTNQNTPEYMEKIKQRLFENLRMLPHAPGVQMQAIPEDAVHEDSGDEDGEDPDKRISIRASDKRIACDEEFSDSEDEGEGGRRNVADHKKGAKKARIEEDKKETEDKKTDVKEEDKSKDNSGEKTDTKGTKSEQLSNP
Chain of Histone deacetylase 3/Nuclear receptor corepressor 2 (HDAC3/NCoR2) (O15379 whole entry, the tested form may be a part): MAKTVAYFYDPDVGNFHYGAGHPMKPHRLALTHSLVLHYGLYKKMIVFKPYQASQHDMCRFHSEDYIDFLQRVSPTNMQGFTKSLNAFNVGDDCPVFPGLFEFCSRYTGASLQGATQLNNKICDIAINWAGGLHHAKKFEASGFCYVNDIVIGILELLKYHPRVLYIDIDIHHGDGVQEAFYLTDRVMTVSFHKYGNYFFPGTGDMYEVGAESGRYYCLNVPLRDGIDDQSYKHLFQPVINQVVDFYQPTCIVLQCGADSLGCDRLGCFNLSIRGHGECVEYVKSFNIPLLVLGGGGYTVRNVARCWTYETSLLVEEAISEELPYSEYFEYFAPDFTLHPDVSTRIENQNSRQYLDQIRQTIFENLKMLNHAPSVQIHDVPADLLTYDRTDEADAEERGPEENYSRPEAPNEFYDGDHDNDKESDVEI
Chain of Histone deacetylase 3/Nuclear receptor corepressor 2 (HDAC3/NCoR2) (Q9Y618 whole entry, further chain, the tested form may be a part): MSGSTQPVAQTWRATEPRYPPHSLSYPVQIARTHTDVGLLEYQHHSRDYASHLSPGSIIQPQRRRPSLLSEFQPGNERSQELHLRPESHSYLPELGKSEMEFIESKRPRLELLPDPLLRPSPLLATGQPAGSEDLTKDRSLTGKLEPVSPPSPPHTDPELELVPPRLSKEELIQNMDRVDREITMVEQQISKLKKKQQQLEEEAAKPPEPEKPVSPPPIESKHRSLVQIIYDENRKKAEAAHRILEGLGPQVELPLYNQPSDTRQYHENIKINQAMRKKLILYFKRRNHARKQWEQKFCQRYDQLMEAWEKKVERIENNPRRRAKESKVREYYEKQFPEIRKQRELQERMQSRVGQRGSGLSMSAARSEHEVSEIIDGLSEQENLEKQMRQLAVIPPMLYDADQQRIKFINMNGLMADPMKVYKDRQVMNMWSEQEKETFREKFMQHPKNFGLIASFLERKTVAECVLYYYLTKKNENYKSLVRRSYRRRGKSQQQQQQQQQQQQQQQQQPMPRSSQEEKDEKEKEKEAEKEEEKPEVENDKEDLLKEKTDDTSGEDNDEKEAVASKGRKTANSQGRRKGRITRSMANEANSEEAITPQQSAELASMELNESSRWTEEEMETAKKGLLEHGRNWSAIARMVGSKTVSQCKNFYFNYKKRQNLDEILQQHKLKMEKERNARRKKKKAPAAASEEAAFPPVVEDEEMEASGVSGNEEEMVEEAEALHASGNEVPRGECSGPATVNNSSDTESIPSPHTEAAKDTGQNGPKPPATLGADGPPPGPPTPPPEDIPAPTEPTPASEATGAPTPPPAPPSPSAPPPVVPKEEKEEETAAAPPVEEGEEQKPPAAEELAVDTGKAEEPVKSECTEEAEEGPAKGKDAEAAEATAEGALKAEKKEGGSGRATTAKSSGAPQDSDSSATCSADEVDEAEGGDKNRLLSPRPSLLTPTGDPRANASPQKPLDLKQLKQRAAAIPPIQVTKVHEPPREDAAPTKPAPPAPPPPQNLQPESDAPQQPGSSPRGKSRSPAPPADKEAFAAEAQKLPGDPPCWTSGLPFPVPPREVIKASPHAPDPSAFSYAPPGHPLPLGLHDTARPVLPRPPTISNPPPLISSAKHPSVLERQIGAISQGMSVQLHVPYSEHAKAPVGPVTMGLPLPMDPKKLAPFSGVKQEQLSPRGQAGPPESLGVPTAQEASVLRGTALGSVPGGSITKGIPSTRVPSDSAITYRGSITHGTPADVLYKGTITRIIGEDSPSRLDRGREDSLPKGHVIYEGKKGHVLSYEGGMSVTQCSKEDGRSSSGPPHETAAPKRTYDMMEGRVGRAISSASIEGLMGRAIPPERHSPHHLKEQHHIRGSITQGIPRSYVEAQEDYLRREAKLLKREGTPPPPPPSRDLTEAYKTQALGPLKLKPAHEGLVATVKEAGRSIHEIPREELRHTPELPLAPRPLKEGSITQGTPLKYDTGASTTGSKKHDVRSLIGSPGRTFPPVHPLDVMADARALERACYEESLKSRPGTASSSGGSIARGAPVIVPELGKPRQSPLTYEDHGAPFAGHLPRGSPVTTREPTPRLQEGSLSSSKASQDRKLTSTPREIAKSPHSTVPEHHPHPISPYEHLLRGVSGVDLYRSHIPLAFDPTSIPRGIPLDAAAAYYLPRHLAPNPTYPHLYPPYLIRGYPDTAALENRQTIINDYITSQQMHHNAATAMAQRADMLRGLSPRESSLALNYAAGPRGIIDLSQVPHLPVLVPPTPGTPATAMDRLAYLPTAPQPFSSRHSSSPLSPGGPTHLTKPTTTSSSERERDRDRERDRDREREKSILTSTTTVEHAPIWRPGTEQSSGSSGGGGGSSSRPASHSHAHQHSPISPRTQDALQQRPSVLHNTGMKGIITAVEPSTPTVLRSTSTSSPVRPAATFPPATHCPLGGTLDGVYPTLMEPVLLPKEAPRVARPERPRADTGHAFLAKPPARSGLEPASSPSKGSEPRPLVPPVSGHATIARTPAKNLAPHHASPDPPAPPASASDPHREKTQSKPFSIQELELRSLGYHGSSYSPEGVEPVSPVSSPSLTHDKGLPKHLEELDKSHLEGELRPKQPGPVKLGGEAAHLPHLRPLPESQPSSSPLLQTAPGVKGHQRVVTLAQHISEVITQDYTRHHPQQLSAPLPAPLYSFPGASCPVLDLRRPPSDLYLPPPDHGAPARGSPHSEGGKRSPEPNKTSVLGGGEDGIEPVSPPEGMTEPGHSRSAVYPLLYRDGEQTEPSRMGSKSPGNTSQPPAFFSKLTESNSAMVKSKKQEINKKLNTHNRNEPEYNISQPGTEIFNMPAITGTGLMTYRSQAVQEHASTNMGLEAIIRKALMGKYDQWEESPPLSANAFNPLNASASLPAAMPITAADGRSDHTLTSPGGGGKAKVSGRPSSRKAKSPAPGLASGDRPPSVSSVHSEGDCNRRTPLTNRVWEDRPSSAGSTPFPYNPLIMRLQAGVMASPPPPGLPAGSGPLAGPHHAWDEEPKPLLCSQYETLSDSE
Description for Histone deacetylase 2: Inhibition of recombinant full length human HDAC2 expressed in baculovirus infected Sf9 cells using Ac-peptide-AMC as substrate preincubated for 15 mins followed by substrate addition and measured after 60 mins by fluorescence based assay

Usually IC50 stands for the point on the concentration scale where inhibition reaches its midpoint. `CC(C)[C@@H]1NC(=O)[C@]2(C)CSC(=N2)c2csc(n2)CNC(=O)C[C@@H](/C(F)=C/CCS)NC1=O`: the IC50 worked out at 2.9 nM on Histone deacetylase 1; 7.42 nM against Histone deacetylase 2; 8.53 nM in [1]; 333 nM in data set [2]; 27.1 nM at Histone deacetylase 8. Moreover, the “inhibition (INH)” value in data set [2] is given as “Dose-dependent effect”.

As for `CC(C)[C@@H]1NC(=O)[C@]2(C)CSC(=N2)c2csc(n2)CNC(=O)C[C@@H](/C(F)=C/CCS)OC1=O`, the “inhibition (INH)” value in [2] is on record as “Dose-dependent effect”.

Turning to `CC(C)[C@@H]1NC(=O)[C@]2(C)CSC(=N2)c2csc(n2)CNC(=O)C[C@H](/C(F)=C/CCS)OC1=O`, the IC50 on Histone deacetylase 1 was determined as 78.5 nM; at Histone deacetylase 2, 95.5 nM; in data set [1] it was 51.4 nM; in data set [2], 1830 nM; against Histone deacetylase 8 it was 378 nM. Moreover, the “inhibition (INH)” value in data set [2] is “Dose-dependent effect”.

Consider `O=C(CCCCCCC(=O)Nc1ccccc1)NO` [VORINOSTAT], for which the “inhibition (INH)” value in data set [2] was “Dose-dependent effect”.

`CCCCCCCC(=O)SCC/C=C/[C@H]1NC(=O)[C@H](C(C)C)NC(=O)[C@]2(C)CSC(=N2)c2csc(n2)CNC(=O)C1(F)F`: the concentration for half-maximal inhibition (IC50) in the data set on A549, in the data set with HCT-116, in the data set with MDA-MB-231 and with SK-OV-3 was > 10000 nM throughout.

On to `CCCCCCCC(=O)SCC/C=C/[C@@H]1CC(=O)NCc2nc(cs2)C2=N[C@@](C)(CS2)C(=O)N[C@@H](C(C)C)C(=O)O1` [LARGAZOLE], for which the “inhibition (INH)” value in data set [2] was “Dose-dependent effect”. The IC50 is 460 nM in the data set with A549, 44 to 110 nM with HCT-116, 4750 nM with MDA-MB-231 and 250 nM in the data set on SK-OV-3.

Take `CCCCCCCC(=O)SCC/C=C(\F)[C@@H]1CC(=O)NCc2nc(cs2)C2=N[C@@](C)(CS2)C(=O)N[C@@H](C(C)C)C(=O)O1`: the half-inhibitory concentration (IC50) is 2300 nM in [1]; > 5000 nM in data set [2]; 520 nM in the data set with A549; 810 nM in the data set with HCT-116; 3850 nM in the data set on MDA-MB-231; 240 nM in the data set with SK-OV-3. In data set [2], the “inhibition (INH)” value is “Dose-dependent effect”.

On to `CC(C)[C@@H]1NC(=O)[C@]2(C)CSC(=N2)c2csc(n2)CNC(=O)C[C@@H](/C=C/C(F)(F)CS)OC1=O`, for which the IC50 was found to be 11.9 nM at Histone deacetylase 1; 18.5 nM against Histone deacetylase 2; 8.21 nM in data set [1]; 898 nM in [2]; 44.1 nM on Histone deacetylase 8. The “inhibition (INH)” value in data set [2] is listed as “Dose-dependent effect”. For the same compound, the Ratio IC50 in the data set filed under Homo sapiens [3] and in the data set listed under Homo sapiens [4] was 79 each time.

For the compound `CCCCCCCC(=O)SCC/C(F)=C/[C@@H]1CC(=O)NCc2nc(cs2)C2=N[C@@](C)(CS2)C(=O)N[C@@H](C(C)C)C(=O)O1`, the IC50 in the data set with A549 was 170 nM; in the data set on HCT-116, 170 nM; in the data set on MDA-MB-231, 4110 nM; with SK-OV-3, 260 nM. Also, the inhibition entry in data set [5] was “Dose-dependent effect”. Moreover, the “inhibition (INH)” value in [6] was “Not Active”.

With `CC(C)[C@@H]1NC(=O)[C@]2(C)CSC(=N2)c2csc(n2)CNC(=O)C(F)(F)[C@@H](/C=C/CCS)NC1=O`, the IC50 at Histone deacetylase 1 amounted to 6.31 nM; against Histone deacetylase 2, 9.25 nM; in [1] it was 7.43 nM; in [2], 1410 nM; on Histone deacetylase 8, 166 nM. In addition, the “inhibition (INH)” value in data set [2] is reported as “Dose-dependent effect”.

Regarding `CCCCCCCC(=O)SCC(F)(F)/C=C/[C@@H]1CC(=O)NCc2nc(cs2)C2=N[C@@](C)(CS2)C(=O)N[C@@H](C(C)C)C(=O)O1`, the IC50 in the data set with A549, with HCT-116, in the data set on MDA-MB-231 and with SK-OV-3 was > 10000 nM in each case.

Turning to `CCCCCCCC(=O)SCC/C=C(\F)[C@H]1CC(=O)NCc2nc(cs2)C2=N[C@@](C)(CS2)C(=O)N[C@@H](C(C)C)C(=O)O1`, the IC50 in the data set on A549, in the data set with HCT-116, in the data set on MDA-MB-231 and in the data set with SK-OV-3 was > 10000 nM each time.

As for `CCCCCCCC(=O)SCC/C=C(\F)[C@@H]1CC(=O)NCc2nc(cs2)C2=N[C@@](C)(CS2)C(=O)N[C@@H](C(C)C)C(=O)N1`, the IC50 in the data set on A549 is > 10000 nM; in the data set with HCT-116 it was 6620 nM; with MDA-MB-231 it was > 10000 nM; in the data set on SK-OV-3, > 10000 nM.

In the case of `CC(C)[C@@H]1NC(=O)[C@]2(C)CSC(=N2)c2csc(n2)CNC(=O)C[C@@H](/C=C/CCS)OC1=O`, the “inhibition (INH)” value in [2] is listed as “Dose-dependent effect”.

`CC(C)[C@@H]1NC(=O)[C@]2(C)CSC(=N2)c2csc(n2)CNC(=O)C[C@@H](/C=C(\F)CCS)OC1=O`: the IC50 is 0.46 nM at Histone deacetylase 1; 2.46 nM at Histone deacetylase 2; 3.2 nM in data set [1]; 19.7 nM in data set [2]; 0.41 nM on Histone deacetylase 8. Also, the “inhibition (INH)” value in data set [2] is “Dose-dependent effect”.
